In PubChem BioAssay (NCI):
Several values for one entry are separate records, joined by “and”; a condition that tells them apart may be missing. Equal values may be shown once.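 Five compound concentrations were applied to cells in 96-well plates for 48 hours; endpoints were derived by simple linear interpolation of the resulting dose-response curve. GI50 is the concentration that inhibits growth by half. Definition used: TGI = concentration required for complete inhibition of growth.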

Legend:
Test in all cases: NCI tumour cell line growth inhibition, 48 h
786-0 renal = tested on: 786-0 renal
A498 renal = tested on: A498 renal
A549 NSCLC = tested on: A549 NSCLC
ACHN renal = tested on: ACHN renal
CAKI-1 renal = tested on: CAKI-1 renal
CCRF-CEM leukemia = tested on: CCRF-CEM leukemia
COLO 205 colon = tested on: COLO 205 colon
DLD-1 colon = tested on: DLD-1 colon
DMS 114 small cell lung = tested on: DMS 114 small cell lung
DMS 273 small cell lung = tested on: DMS 273 small cell lung
EKVX NSCLC = tested on: EKVX NSCLC
HCC-2998 colon = tested on: HCC-2998 colon
HCT-116 colon = tested on: HCT-116 colon
HCT-15 colon = tested on: HCT-15 colon
HL-60(TB) leukemia = tested on: HL-60(TB) leukemia
HOP-18 NSCLC = tested on: HOP-18 NSCLC
HOP-62 NSCLC = tested on: HOP-62 NSCLC
HT29 colon = tested on: HT29 colon
IGROV1 ovarian = tested on: IGROV1 ovarian
K-562 leukemia = tested on: K-562 leukemia
KM12 colon = tested on: KM12 colon
KM20L2 colon = tested on: KM20L2 colon
LOX IMVI melanoma = tested on: LOX IMVI melanoma
LXFL 529 NSCLC = tested on: LXFL 529 NSCLC
M14 melanoma = tested on: M14 melanoma
M19-MEL melanoma = tested on: M19-MEL melanoma
MALME-3M melanoma = tested on: MALME-3M melanoma
MOLT-4 leukemia = tested on: MOLT-4 leukemia
NCI-H226 lung = tested on: NCI-H226 lung
NCI-H23 lung = tested on: NCI-H23 lung
NCI-H460 lung = tested on: NCI-H460 lung
NCI-H522 lung = tested on: NCI-H522 lung
OVCAR-3 ovarian = tested on: OVCAR-3 ovarian
OVCAR-4 ovarian = tested on: OVCAR-4 ovarian
OVCAR-5 ovarian = tested on: OVCAR-5 ovarian
OVCAR-8 ovarian = tested on: OVCAR-8 ovarian
RPMI-8226 leukemia = tested on: RPMI-8226 leukemia
RXF 393 renal = tested on: RXF 393 renal
SF-268 CNS = tested on: SF-268 CNS
SF-295 CNS = tested on: SF-295 CNS
SF-539 CNS = tested on: SF-539 CNS
SK-MEL-2 melanoma = tested on: SK-MEL-2 melanoma
SK-MEL-28 melanoma = tested on: SK-MEL-28 melanoma
SK-MEL-5 melanoma = tested on: SK-MEL-5 melanoma
SK-OV-3 ovarian = tested on: SK-OV-3 ovarian
SN12C renal = tested on: SN12C renal
SNB-19 CNS = tested on: SNB-19 CNS
SNB-75 CNS = tested on: SNB-75 CNS
SNB-78 CNS = tested on: SNB-78 CNS
SR leukemia = tested on: SR leukemia
SW-620 colon = tested on: SW-620 colon
TK-10 renal = tested on: TK-10 renal
U251 CNS = tested on: U251 CNS
UACC-257 melanoma = tested on: UACC-257 melanoma
UACC-62 melanoma = tested on: UACC-62 melanoma
UO-31 renal = tested on: UO-31 renal
XF 498 CNS = tested on: XF 498 CNS
HOP-92 NSCLC = tested on: HOP-92 NSCLC
HS 578T breast = tested on: HS 578T breast

Cc1cc(Br)ccc1NC1=CC(=O)C(=O)c2ccccc21 was tested, and the TGI (786-0 renal) was greater than 100 µM, the TGI (A498 renal) was greater than 100 µM and the TGI (A549 NSCLC) was greater than 100 µM. The TGI (ACHN renal) was greater than 100 µM, the TGI (CAKI-1 renal) was 53100 nM and the TGI (CCRF-CEM leukemia) was greater than 100 µM. It also gave a TGI (COLO 205 colon) greater than 100 µM, a TGI (DLD-1 colon) greater than 100 µM and a TGI (DMS 114 small cell lung) of 45 µM. For the same molecule, the TGI (DMS 273 small cell lung) was greater than 100 µM, the TGI (EKVX NSCLC) was greater than 100 µM and the TGI (HCC-2998 colon) was greater than 100 µM. The TGI (HCT-116 colon) was greater than 100 µM, the TGI (HCT-15 colon) was greater than 100 µM and the TGI (HL-60(TB) leukemia) was 38.5 µM. For the same molecule, the TGI (HOP-18 NSCLC) was 57.1 µM, the TGI (HOP-62 NSCLC) was greater than 100 µM and the TGI (HT29 colon) was greater than 100 µM. The TGI (IGROV1 ovarian) was greater than 100 µM, the TGI (K-562 leukemia) was greater than 100 µM and the TGI (KM12 colon) was greater than 100 µM. For the same molecule, the TGI (KM20L2 colon) was greater than 100 µM, the TGI (LOX IMVI melanoma) was 48500 nM and the TGI (LXFL 529 NSCLC) was greater than 100 µM. For the same molecule, the TGI (M14 melanoma) was greater than 100 µM, the TGI (M19-MEL melanoma) was 29.5 µM and the TGI (MALME-3M melanoma) was 53 µM. The TGI (MOLT-4 leukemia) was greater than 100000 nM, the TGI (NCI-H226 lung) was greater than 100 µM and the TGI (NCI-H23 lung) was 32.4 µM. The TGI (NCI-H460 lung) was 78.2 µM, the TGI (NCI-H522 lung) was greater than 100 µM and the TGI (OVCAR-3 ovarian) was greater than 100 µM. For the same molecule, the TGI (OVCAR-4 ovarian) was 31.1 µM, the TGI (OVCAR-5 ovarian) was greater than 100 µM and the TGI (OVCAR-8 ovarian) was greater than 100 µM. It also gave a TGI (RPMI-8226 leukemia) greater than 100 µM, a TGI (RXF 393 renal) of 69.6 µM and a TGI (SF-268 CNS) greater than 100 µM. For the same molecule, the TGI (SF-295 CNS) was greater than 100 µM, the TGI (SF-539 CNS) was greater than 100 µM and the TGI (SK-MEL-2 melanoma) was greater than 100 µM. The TGI (SK-MEL-28 melanoma) was greater than 100 µM, the TGI (SK-MEL-5 melanoma) was 36.8 µM and the TGI (SK-OV-3 ovarian) was greater than 100 µM. For the same molecule, the TGI (SN12C renal) was greater than 100 µM, the TGI (SNB-19 CNS) was greater than 100 µM and the TGI (SNB-75 CNS) was greater than 100 µM. For the same molecule, the TGI (SNB-78 CNS) was greater than 100 µM, the TGI (SR leukemia) was greater than 100000 nM and the TGI (SW-620 colon) was 89.1 µM. It also gave a TGI (TK-10 renal) greater than 100 µM, a TGI (U251 CNS) greater than 100 µM and a TGI (UACC-257 melanoma) of 39.4 µM. It also gave a TGI (UACC-62 melanoma) of 36.1 µM, a TGI (UO-31 renal) greater than 100 µM and a TGI (XF 498 CNS) of 89.1 µM.
CCN(CC)CCCNc1ccc2ncn3c4ccc(O)cc4c(=O)c1c23 was tested, and the GI50 (786-0 renal) was 802 nM, the TGI (786-0 renal) was 14.5 µM and the GI50 (A498 renal) was 600 nM. For the same molecule, the TGI (A498 renal) was 17.8 µM, the GI50 (A549 NSCLC) was 336 nM and the TGI (A549 NSCLC) was 6.94 µM. It also gave a GI50 (ACHN renal) of 389 nM, a TGI (ACHN renal) of 3.78 µM and a GI50 (CAKI-1 renal) of 205 nM. For the same molecule, the TGI (CAKI-1 renal) was 2480 nM and 2360 nM, the TGI (COLO 205 colon) was 19.4 µM and the TGI (DLD-1 colon) was 16.1 µM. For the same molecule, the TGI (DMS 114 small cell lung) was 23.8 µM, the TGI (DMS 273 small cell lung) was 14.8 µM and the GI50 (EKVX NSCLC) was 5.51 µM. The TGI (EKVX NSCLC) was 19 µM, the GI50 (HCC-2998 colon) was 3.59 µM and the TGI (HCC-2998 colon) was 17.8 µM. For the same molecule, the GI50 (HCT-116 colon) was 359 nM, the TGI (HCT-116 colon) was 9.75 µM and 14.1 µM and the GI50 (HCT-15 colon) was 2030 nM. For the same molecule, the TGI (HCT-15 colon) was 15.7 µM, the GI50 (HL-60(TB) leukemia) was 170 nM and the TGI (HL-60(TB) leukemia) was 4.49 µM and 1.62 µM. The TGI (HOP-18 NSCLC) was 34.6 µM, the GI50 (HOP-62 NSCLC) was 1250 nM and the TGI (HOP-62 NSCLC) was 19.2 µM. For the same molecule, the GI50 (HOP-92 NSCLC) was 1280 nM, the TGI (HOP-92 NSCLC) was 7.57 µM and 12.5 µM and the TGI (HS 578T breast) was 7.28 µM. The GI50 (HT29 colon) was 2320 nM, the TGI (HT29 colon) was 7.78 µM and the GI50 (IGROV1 ovarian) was 265 nM. For the same molecule, the TGI (IGROV1 ovarian) was 8.58 µM and 18.6 µM, the GI50 (K-562 leukemia) was 1300 nM and the TGI (K-562 leukemia) was 20.5 µM. The GI50 (KM12 colon) was 2600 nM, the TGI (KM12 colon) was 19.5 µM and the TGI (KM20L2 colon) was 18.2 µM. For the same molecule, the GI50 (LOX IMVI melanoma) was 950 nM, the TGI (LOX IMVI melanoma) was 2370 nM and 2560 nM and the TGI (LXFL 529 NSCLC) was 18.5 µM. The TGI (M14 melanoma) was 16 µM, the TGI (M19-MEL melanoma) was 21.3 µM and the GI50 (MALME-3M melanoma) was 4.17 µM. For the same molecule, the TGI (MALME-3M melanoma) was 19.1 µM, the TGI (MOLT-4 leukemia) was 255 nM and 520 nM and the TGI (NCI-H226 lung) was 3.5 µM. It also gave a GI50 (NCI-H23 lung) of 784 nM, a TGI (NCI-H23 lung) of 14.5 µM and a GI50 (NCI-H460 lung) of 62.7 nM. For the same molecule, the TGI (NCI-H460 lung) was 5.78 µM, the GI50 (NCI-H522 lung) was 218 nM and the TGI (NCI-H522 lung) was 4.44 µM and 4.68 µM. The TGI (OVCAR-3 ovarian) was 22.2 µM, the TGI (OVCAR-4 ovarian) was 11.9 µM and the GI50 (OVCAR-5 ovarian) was 4.39 µM. For the same molecule, the TGI (OVCAR-5 ovarian) was 10.7 µM, the GI50 (OVCAR-8 ovarian) was 669 nM and the TGI (OVCAR-8 ovarian) was 13.4 µM. The GI50 (RPMI-8226 leukemia) was 1450 nM, the TGI (RPMI-8226 leukemia) was 21.8 µM and the GI50 (RXF 393 renal) was 902 nM. For the same molecule, the TGI (RXF 393 renal) was 6.35 µM and 2.69 µM, the GI50 (SF-268 CNS) was 2660 nM and the TGI (SF-268 CNS) was 17.5 µM. It also gave a GI50 (SF-295 CNS) of 1830 nM, a TGI (SF-295 CNS) of 15.9 µM and a GI50 (SF-539 CNS) of 4.51 µM. The TGI (SF-539 CNS) was 17.2 µM, the TGI (SK-MEL-2 melanoma) was 19 µM and the TGI (SK-MEL-28 melanoma) was 25.2 µM. For the same molecule, the TGI (SK-MEL-5 melanoma) was 18.3 µM, the GI50 (SK-OV-3 ovarian) was 369 nM and the TGI (SK-OV-3 ovarian) was 17.8 µM. The GI50 (SN12C renal) was 2780 nM, the TGI (SN12C renal) was 14.7 µM and the GI50 (SNB-19 CNS) was 493 nM. The TGI (SNB-19 CNS) was 20.2 µM, the GI50 (SNB-75 CNS) was 2300 nM and the TGI (SNB-75 CNS) was 8.49 µM and 8.39 µM. For the same molecule, the TGI (SNB-78 CNS) was 28.8 µM, the GI50 (SR leukemia) was 124 nM and the TGI (SR leukemia) was 2860 nM and 1530 nM. The GI50 (SW-620 colon) was 832 nM, the TGI (SW-620 colon) was 15.8 µM and the GI50 (TK-10 renal) was 2230 nM. For the same molecule, the TGI (TK-10 renal) was 21.2 µM, the GI50 (U251 CNS) was 2050 nM and the TGI (U251 CNS) was 17.7 µM. The TGI (UACC-257 melanoma) was 23.8 µM, the GI50 (UO-31 renal) was 295 nM and the TGI (UO-31 renal) was 13.4 µM. For the same molecule, the TGI (XF 498 CNS) was 14.2 µM.
